From patent US12528838B2, “Cyclic dominant negative competence stimulating peptide analogs and methods of treating Streptococcus pneumoniae infections” (priority 2019, dated 2026)
pEC50, pIC50: −log10 of the molar value. Bridge positions count the residues as written; N and C are the ends. Square brackets hold non-standard residues; d marks the D form. Peptide text beside a SMILES is read from it. Dap = NC[C@H](N)C(=O)O

Key:
[1] = Stability in mouse lungs (BAL fluid analysed by HPLC after intratracheal instillation); type: in vivo, CD1 mice; settings: both sexes, CD1, cell-free bronchoalveolar lavage fluid (BALF), inhaled or intranasal, 400 ug, 400 μg intratracheally, FIG. 14B
Method: (§1) FIGS. 14A-14D. Pharmacological properties of dnCSPs. (FIG. 14A) CSPs were treated with trypsin/chymotrypsin and their degradation monitored by HPLC. (FIG. 14B) CD1 mice (3/cohort, males & females) were intratracheally instilled 400 μg of native or dnCSPs. Mice were bronchial alveolar lavaged (BAL) at indicated times, and cell free BAL fluid (BALF) were analyzed by HPLC. […] (FIGS. 14C-14D) CD1 mice (5/cohorts, males & females) were intratracheally inoculated with MTD doses of native and dnCSPs (200 μg-20 mg/kg). […] Lung sections (FIGS. 14C-14D) and other organs were H&E stained. b=bronchioles; v=vessels.

[2] = Proteolytic stability in trypsin/chymotrypsin solution, monitored by RP-HPLC; type: in vitro ADME
Method: FIG. 4E. […] All peptides were treated with trypsin/chymotrypsin (0.05 μg mL-1 enzyme concentration). RP-HPLC was used to monitor the progress of degradation. All peptides have a half-life about 3 hours. After 3 to 4 hours, some degradation product of CSP1-cyc-E1A(Dap6E10) start to precipitate out, resulting in the plateau in the curve.
as §1
The proteolytic stability of CSP1-E1A-cyc(Dap6E10) in Trypsin and Chymotrypsin solution was tested and the half-life measured. […] To test that, CSP1-E1A-des-K16K17-cyc(Dap6E10) was manually synthesized and evaluated its activity.
Pharmacological evaluation of lead cyclic dnCSPs. Before moving the most promising dnCSPs into mouse models, their pharmacological properties will be evaluated. As these are peptide-based drugs, first assessed are their metabolic stability. These assays will include prolonged incubation in physiologically-relevant buffers with varying pH values, stability towards degradation by trypsin and chymotrypsin, and stability in mouse lungs, plasma and serum to simulate in vivo proteolytic environments. Degradation of dnCSPs will be quantified using HPLC. […] The MTD will be defined as the maximum dose that causes a 15% loss of initial weight. […] Systemic toxicity will be assessed by performing blood chemistry and complete blood count (CBC) with differential. Major organs (e.g., liver, kidney, heart, lung, etc.) and sternum (to test genotoxicity) will be collected for histopathological and toxicological analysis. […]

ComD1 receptor = ComD1 receptor (Streptococcus pneumoniae serotype 2, UniProt A0A0H2ZM50); assay: cell-based; type: cell-based
Chain of ComD1 receptor (A0A0H2ZM50 entry or part of it): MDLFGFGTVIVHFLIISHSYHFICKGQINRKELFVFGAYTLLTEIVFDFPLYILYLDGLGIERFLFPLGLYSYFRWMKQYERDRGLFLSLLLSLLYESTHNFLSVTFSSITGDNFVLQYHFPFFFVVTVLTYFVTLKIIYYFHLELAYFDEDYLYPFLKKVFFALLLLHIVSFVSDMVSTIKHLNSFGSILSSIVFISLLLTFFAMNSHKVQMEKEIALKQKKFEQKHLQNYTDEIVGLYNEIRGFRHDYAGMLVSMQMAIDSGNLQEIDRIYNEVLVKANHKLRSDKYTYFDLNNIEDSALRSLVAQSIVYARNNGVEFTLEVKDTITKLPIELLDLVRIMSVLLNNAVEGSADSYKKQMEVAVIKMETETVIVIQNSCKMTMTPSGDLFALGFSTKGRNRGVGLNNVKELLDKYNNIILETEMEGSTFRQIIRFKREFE
Source text: (§2) Biological evaluation of cyclic dnCSPs. The cyclic dnCSPs will be assessed for inhibition of competence induction using the β-gal, lux (FIG. 11) or luc (FIG. 15) reporter systems we have optimized for the analysis of a large number of signal variants in 96-well plates. All assays will be performed in triplicates and independently three times. Serial dilutions of dnCSPs will be conducted to determine the EC50 and IC50 values of promising dnCSPs through initial screening. Data from reporter assays will be analyzed using the GraphPad Prism software. The lead dnCSPs will be assessed for their therapeutic potential using multiple in vitro assays, including attenuation of ComX-induction (reporter systems), genetic transformation, allolysis (zymogram assays), and release of PLY (hemolysis & Western blots). Lastly, the pneumococcal competence system regulates biofilm formation, which is important for the pathogenesis of […]. The ability of the dnCSPs to inhibit biofilm formation will be evaluated after 24 hr of growth on 1% BSA coated coverslips placed in flat-bottom polystyrene tissue culture plates by staining with FilmTracer LIVE/DEAD Biofilm viability kit (Invitrogen, L10316), and visualized using a confocal microscope and Z-stacked to construct 3D-images.

ComD2 receptor = ComD2 receptor (Streptococcus pneumoniae serotype 4, UniProt A0A0H2US84); assay: cell-based; type: cell-based
Chain of ComD2 receptor (A0A0H2US84 entry or part of it): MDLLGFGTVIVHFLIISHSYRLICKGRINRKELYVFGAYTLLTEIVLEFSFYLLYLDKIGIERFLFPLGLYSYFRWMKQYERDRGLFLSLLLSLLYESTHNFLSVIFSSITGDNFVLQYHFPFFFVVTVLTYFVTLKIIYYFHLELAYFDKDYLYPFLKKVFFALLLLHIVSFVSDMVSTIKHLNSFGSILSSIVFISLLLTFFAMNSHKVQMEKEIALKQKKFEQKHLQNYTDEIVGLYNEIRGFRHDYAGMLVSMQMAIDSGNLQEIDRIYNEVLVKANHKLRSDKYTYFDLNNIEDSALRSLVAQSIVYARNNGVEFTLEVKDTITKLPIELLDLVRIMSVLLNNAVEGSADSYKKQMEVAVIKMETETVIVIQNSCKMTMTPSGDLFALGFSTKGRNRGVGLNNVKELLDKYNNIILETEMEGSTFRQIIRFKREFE
Source text: as §2, with “The cyclic dnCSPs will be assessed for inhibition of competence induction using the β-gal, lux (FIG. 11) or luc (FIG. 15) reporter systems we have optimized for the analysis of a large number of signal variants in 96-well plates.” left out

[3] = in vitro, FIG. 14A, read-out: half-life (converted)

SMILES	half-life [1]	half-life [2, 3]	pIC50 (ComD2 receptor)	also measured
CC[C@H](C)[C@H](NC(=O)[C@H](CCCNC(=N)N)NC(=O)[C@H](CCSC)NC(=O)[C@@H](N)CCC(=O)O)C(=O)N[C@@H](CO)C(=O)N[C@@H](CCCNC(=N)N)C(=O)N[C@H](C(=O)N[C@H](C(=O)N[C@@H](CC(C)C)C(=O)N[C@H](CC(=O)O)C(=O)N[C@@H](Cc1ccccc1)C(=O)N[C@@H](CC(C)C)C(=O)N[C@@H](Cc1ccccc1)C(=O)N[C@@H](CC(C)C)C(=O)N[C@@H](CCCNC(=N)N)C(=O)N[C@@H](CCCCN)C(=O)N[C@@H](CCCCN)C(=O)O)[C@@H](C)CC)[C@@H](C)CC [CSP2-d10, E-M-R-I-S-R-I-I-L-d-F-L-F-L-R-K-K] (H-EMRISRIIL[dD]FLFLRKK-OH; N-terminus and C-terminus assumed)	2.5 h			
CC[C@H](C)[C@H](NC(=O)[C@H](Cc1ccccc1)NC(=O)[C@H](CC(=O)O)NC(=O)[C@H](CCCNC(=N)N)NC(=O)[C@H](Cc1ccccc1)NC(=O)[C@H](Cc1ccccc1)NC(=O)[C@H](CCCCN)NC(=O)[C@H](CO)NC(=O)[C@H](CC(C)C)NC(=O)[C@H](CCCNC(=N)N)NC(=O)[C@H](CCSC)NC(=O)[C@@H](N)CCC(=O)O)C(=O)N[C@@H](CC(C)C)C(=O)N[C@@H](CCC(N)=O)C(=O)N[C@@H](CCCNC(=N)N)C(=O)N[C@@H](CCCCN)C(=O)N[C@@H](CCCCN)C(=O)O [CSP1, reference compound]	1.5 h			
CC[C@H](C)[C@H](NC(=O)[C@H](CCCNC(=N)N)NC(=O)[C@H](CCSC)NC(=O)[C@H](C)N)C(=O)N[C@@H](CO)C(=O)N[C@@H](CCCNC(=N)N)C(=O)N[C@H](C(=O)N[C@H](C(=O)N[C@@H](CC(C)C)C(=O)N[C@H](CC(=O)O)C(=O)N[C@@H](Cc1ccccc1)C(=O)N[C@@H](CC(C)C)C(=O)N[C@@H](Cc1ccccc1)C(=O)N[C@@H](CC(C)C)C(=O)N[C@@H](CCCNC(=N)N)C(=O)N[C@@H](CCCCN)C(=O)N[C@@H](CCCCN)C(=O)O)[C@@H](C)CC)[C@@H](C)CC [CSP2-E1Ad10, A-M-R-I-S-R-I-I-L-d-F-L-F-L-R-K-K] (H-AMRISRIIL[dD]FLFLRKK-OH; N-terminus and C-terminus assumed)	> 3 h	> 3 h		
CC[C@H](C)[C@H](NC(=O)[C@H](Cc1ccccc1)NC(=O)[C@@H]1CCC(=O)NC[C@H](NC(=O)[C@H](CO)NC(=O)[C@H](CC(C)C)NC(=O)[C@H](CCCNC(=N)N)NC(=O)[C@H](CCSC)NC(=O)[C@H](C)N)C(=O)N[C@@H](Cc2ccccc2)C(=O)N[C@@H](Cc2ccccc2)C(=O)N[C@@H](CCCNC(=N)N)C(=O)N1)C(=O)N[C@@H](CC(C)C)C(=O)N[C@@H](CCC(N)=O)C(=O)N[C@@H](CCCNC(=N)N)C(=O)N[C@@H](CCCCN)C(=O)N[C@@H](CCCCN)C(=O)O [CSP1-E1A-cyc(Dap6E10), A-M-R-L-S-(Dap-F-F-R-E)-F-I-L-Q-R-K-K] (H-AMRLS[Dap]FFREFILQRKK-OH; lactam 6-10; N-terminus and C-terminus assumed)			6.74	pIC50 (ComD1 receptor): 7.12; half-life ([2]; counting active degradation product CSP1-E1A-des-K16K17-cyc(Dap6E10), read-out: effective half-life): > 4 h
CC[C@H](C)[C@H](NC(=O)[C@H](Cc1ccccc1)NC(=O)[C@H](CC(=O)O)NC(=O)[C@H](CCCNC(=N)N)NC(=O)[C@H](Cc1ccccc1)NC(=O)[C@H](Cc1ccccc1)NC(=O)[C@H](CCCCN)NC(=O)[C@H](CO)NC(=O)[C@H](CC(C)C)NC(=O)[C@H](CCCNC(=N)N)NC(=O)[C@H](CCSC)NC(=O)[C@H](C)N)C(=O)N[C@@H](CC(C)C)C(=O)N[C@@H](CCC(N)=O)C(=O)N[C@@H](CCCNC(=N)N)C(=O)N[C@@H](CCCCN)C(=O)N[C@@H](CCCCN)C(=O)O [CSP1-E1A, A-M-R-L-S-K-F-F-R-D-F-I-L-Q-R-K-K]	1.5 h	1.5 h	< 5.00	
CC[C@H](C)[C@H](NC(=O)[C@H](Cc1ccccc1)NC(=O)[C@@H]1CCC(=O)NC[C@H](NC(=O)[C@H](CO)NC(=O)[C@H](CC(C)C)NC(=O)[C@H](CCCNC(=N)N)NC(=O)[C@H](CCSC)NC(=O)[C@@H](N)CCC(=O)O)C(=O)N[C@@H](Cc2ccccc2)C(=O)N[C@@H](Cc2ccccc2)C(=O)N[C@@H](CCCNC(=N)N)C(=O)N1)C(=O)N[C@@H](CC(C)C)C(=O)N[C@@H](CCC(N)=O)C(=O)N[C@@H](CCCNC(=N)N)C(=O)N[C@@H](CCCCN)C(=O)N[C@@H](CCCCN)C(=O)O [CSP1-cyc(Dap6E10)] (H-EMRLS[Dap]FFREFILQRKK-OH; lactam 6-10; N-terminus and C-terminus assumed)				pEC50 (ComD1 receptor): 7.84; maximal induction of comX compared to CSP1 (ComD1 receptor; ComD1): 100%; potency higher than CSP1-cyc(Orn6D10) (ComD1 receptor; ComD1): 10 fold; pEC50 (ComD2 receptor): 7.88; potency against ComD2 receptor higher than CSP2 (ComD2 receptor): about 4 fold
